Laboratory results reported in patent US20140221964A1, “SYSTEMS AND METHODS FOR LOCAL DRUG DELIVERY TO KIDNEYS” (priority 2011, published 2014).

System: Spontaneously hypertensive rats
Test: Blood pressure and heart rate by tail-cuff after chronic local drug delivery to the renal capsule via implanted minipumps
[1] = local delivery to renal capsule by minipump, tail-cuff, over time

`Clc1cccc(Cl)c1N=C1NCCN1` [clonidine] was tested, and the “dosage resulting in the blood-pressure effect, compared with oral dosage expected for a similar result” value (local delivery to renal capsule) was “significantly less than an oral dosage”, the “heart rate (side effect)” value (local delivery to renal capsule by minipump) was “not reduced” and the diastolic blood pressure [1] was “reduced”. The mean blood pressure [1] was “reduced” and the systolic blood pressure [1] was “reduced”.
